Measurements published in patent US20170008888A1 (KYORIN PHARMACEUTICAL CO., LTD., priority 2014, published 2017).
Read-outs that look alike come from different tables or passages of the source.

Legend:
Type in all cases: binding
AurB or AurC = assay: Probe-based (AX9989) kinase profiling in Jurkat lysate: AurB or AurC
Procedure, shortened: (§1)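 Jurkat lysate, HEPES pH 7.5 buffer + 20 mM MnCl2; cpd 15 min RT; AX9989 ATP probe 5 μM final, RT. Trypsin digest, streptavidin capture, LC/MS; % inhibition vs vehicle from labeled-peptide signal.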

AurA = target: T1, AurA (Homo sapiens, UniProt O14965); assay: Probe-based (AX9989) kinase profiling in Jurkat lysate: AurA; conditions: for inhibition at 0.1 µM: screening concentration 0.1 μM
T1 construct: screened for activity against several kinases in Jurkat cells; endogenous in cells; host or cells: Jurkat cell lysate
T1 sequence (O14965 1-403): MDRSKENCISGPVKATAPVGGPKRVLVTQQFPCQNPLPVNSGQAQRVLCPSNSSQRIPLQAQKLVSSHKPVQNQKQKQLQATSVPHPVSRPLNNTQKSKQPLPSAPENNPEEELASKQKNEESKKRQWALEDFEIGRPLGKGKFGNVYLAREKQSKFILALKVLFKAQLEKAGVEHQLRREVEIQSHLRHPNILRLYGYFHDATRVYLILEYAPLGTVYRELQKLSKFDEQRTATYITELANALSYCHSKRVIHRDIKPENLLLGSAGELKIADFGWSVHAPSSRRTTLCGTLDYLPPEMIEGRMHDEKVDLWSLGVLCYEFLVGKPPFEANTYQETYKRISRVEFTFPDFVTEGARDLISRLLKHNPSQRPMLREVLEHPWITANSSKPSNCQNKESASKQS
Procedure, shortened: as §1

AMPKa1 or AMPKa2 = assay: Probe-based (AX9989) kinase profiling in Jurkat lysate: AMPKa1 or AMPKa2
Procedure, shortened: as §1

TAO2 = target: T2, TAO2 (Homo sapiens, UniProt Q9UL54); assay: Probe-based (AX9989) kinase profiling in Jurkat lysate: TAO2; conditions: for inhibition at 0.1 µM: screening concentration 0.1 μM
T2 construct: screened for activity against several kinases in Jurkat cells; endogenous in cells; host or cells: Jurkat cell lysate
T2 sequence (Q9UL54 1-1235): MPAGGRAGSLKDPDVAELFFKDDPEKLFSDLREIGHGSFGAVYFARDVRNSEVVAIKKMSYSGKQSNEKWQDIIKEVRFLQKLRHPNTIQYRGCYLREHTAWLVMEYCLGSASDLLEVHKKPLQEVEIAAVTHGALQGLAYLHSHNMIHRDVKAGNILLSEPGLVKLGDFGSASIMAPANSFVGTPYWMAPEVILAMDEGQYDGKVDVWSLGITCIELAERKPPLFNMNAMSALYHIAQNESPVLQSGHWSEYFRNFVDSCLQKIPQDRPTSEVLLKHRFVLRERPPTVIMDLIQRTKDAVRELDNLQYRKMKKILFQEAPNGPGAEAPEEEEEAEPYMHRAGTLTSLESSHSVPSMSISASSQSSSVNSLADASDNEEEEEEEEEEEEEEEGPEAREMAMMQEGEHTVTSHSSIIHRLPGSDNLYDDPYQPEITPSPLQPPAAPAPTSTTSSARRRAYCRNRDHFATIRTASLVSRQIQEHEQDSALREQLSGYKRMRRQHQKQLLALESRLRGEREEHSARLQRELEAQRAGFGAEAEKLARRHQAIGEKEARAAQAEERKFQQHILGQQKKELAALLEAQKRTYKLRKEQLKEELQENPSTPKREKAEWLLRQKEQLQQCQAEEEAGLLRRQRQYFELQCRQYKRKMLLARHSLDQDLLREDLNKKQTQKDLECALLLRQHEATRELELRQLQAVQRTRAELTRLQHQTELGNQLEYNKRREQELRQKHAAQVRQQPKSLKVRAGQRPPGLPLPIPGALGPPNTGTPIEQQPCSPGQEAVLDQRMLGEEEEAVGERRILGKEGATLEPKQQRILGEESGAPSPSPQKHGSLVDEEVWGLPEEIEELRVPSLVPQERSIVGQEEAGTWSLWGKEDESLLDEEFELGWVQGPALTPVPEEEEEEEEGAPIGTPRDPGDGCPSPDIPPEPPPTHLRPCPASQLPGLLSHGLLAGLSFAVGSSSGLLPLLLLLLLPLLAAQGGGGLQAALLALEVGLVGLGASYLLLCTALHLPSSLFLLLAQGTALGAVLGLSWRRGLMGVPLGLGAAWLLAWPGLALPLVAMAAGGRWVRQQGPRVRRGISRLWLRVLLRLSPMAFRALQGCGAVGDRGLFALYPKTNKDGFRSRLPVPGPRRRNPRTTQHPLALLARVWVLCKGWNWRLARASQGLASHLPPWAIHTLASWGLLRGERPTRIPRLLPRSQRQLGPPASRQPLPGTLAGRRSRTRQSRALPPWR
Procedure, shortened: as §1

[1] = read-out: Kinase inhibition % at indicated screening concentration: AurA
[2] = read-out: Kinase inhibition % at indicated screening concentration: TAO2
[3] = screening concentration 1.0 μM, read-out: Kinase inhibition % at indicated screening concentration: AurA
[4] = screening concentration 1.0 μM, read-out: Kinase inhibition % at indicated screening concentration: TAO2
[5] = screening concentration 1 μM, read-out: AurA Inhibition % at indicated screening concentration
[6] = screening concentration 1 μM, read-out: TAO2 Inhibition % at indicated screening concentration

Structure (SMILES)	Kinase inhibition % at indicated screening concentration: AurB or AurC (AurB or AurC; screening concentration 1.0 μM)	inhibition at 1 µM (AurA; [3]) [%]	Kinase inhibition % at indicated screening concentration: AMPKa1 or AMPKa2 (AMPKa1 or AMPKa2; screening concentration 1.0 μM)	inhibition at 1 µM (TAO2; [4]) [%]	further results
CCOc1cc(C(=O)N2CC(N3CCCCC3)C2)ccc1Nc1cc2c(cn1)N(C)C(=O)c1ccccc1N2C [Compound 114]					Kinase inhibition % at indicated screening concentration: AurB or AurC (AurB or AurC; screening concentration 0.1 μM): E (E is ≦35%); inhibition at 0.1 µM (AurA; [1]): ≤ 35%; Kinase inhibition % at indicated screening concentration: AMPKa1 or AMPKa2 (AMPKa1 or AMPKa2; screening concentration 0.1 μM): E (E is ≦35%); inhibition at 0.1 µM (TAO2; [2]): ≤ 35%
CCOc1cc(C(=O)NCCOC)ccc1Nc1cc2c(cn1)N(C)C(=O)c1ccccc1N2C [Compound 83]	E (E is ≦35%)	≤ 35	E (E is ≦35%)	≤ 35	
CCOc1cc(C(=O)N2CCN(C3CCN(C)CC3)CC2)ccc1Nc1cc2c(cn1)N(C)C(=O)c1c(F)cccc1O2 [Compound T102]					AurB or AurC Inhibition % at indicated screening concentration (AurB or AurC; screening concentration 10 μM): E (E is ≦35%); inhibition at 10 µM (AurA; screening concentration 10 μM, read-out: AurA Inhibition % at indicated screening concentration): ≤ 35%; AMPKa1 or AMPKa2 Inhibition % at indicated screening concentration (AMPKa1 or AMPKa2; screening concentration 10 μM): E (E is ≦35%); inhibition at 10 µM (TAO2; screening concentration 10 μM, read-out: TAO2 Inhibition % at indicated screening concentration): ≤ 35%
CCOc1cc(C(=O)N(CC)CCN(CC)CC)ccc1Nc1cc2c(cn1)N(C)C(=O)c1ccccc1N2C [Compound 122]	E (E is ≦35%)	≤ 35	E (E is ≦35%)	≤ 35	
CC(C)Oc1cc(C(=O)N2CCN(C3CCN(C)CC3)CC2)ccc1Nc1cc2c(cn1)N(C)C(=O)c1ccccc1N2C [Compound T49]					AurB or AurC Inhibition % at indicated screening concentration (AurB or AurC; screening concentration 1 μM): E (E is ≦35%); inhibition at 1 µM (AurA; [5]): ≤ 35%; AMPKa1 or AMPKa2 Inhibition % at indicated screening concentration (AMPKa1 or AMPKa2; screening concentration 1 μM): E (E is ≦35%); inhibition at 1 µM (TAO2; [6]): ≤ 35%
CCOc1cc(C(=O)N[C@@H]2CCCOC2)ccc1Nc1cc2c(cn1)N(C)C(=O)c1ccccc1N2C [Compound 69]	E (E is ≦35%)	≤ 35	E (E is ≦35%)	≤ 35	
CCOc1cc(C(=O)N2CCN(CCOCCO)CC2)ccc1Nc1cc2c(cn1)N(C)C(=O)c1ccccc1N2C [Compound 6]	E (E is ≦35%)	≤ 35	E (E is ≦35%)	≤ 35	
Cc1cc(CN2CCCC2)ccc1Nc1cc2c(cn1)N(C)C(=O)c1ccccc1N2C [Compound 106, 5,11-dimethyl-3-(2-methyl-4-(pyrrolidin-1-ylmethyl)phenylamino)-5H-benzo[e]pyrido[3,4-b][1,4]diazepin-10(11H)-one]	E (E is ≦35%)	≤ 35	E (E is ≦35%)	50 to 75	
CCOc1cc(C(=O)N2CCC(O)CC2)ccc1Nc1cc2c(cn1)N(C)C(=O)c1ccccc1N2C [Compound 52]	E (E is ≦35%)	≤ 35	E (E is ≦35%)	≤ 35	
CCOc1cc(C(=O)N2CCC(F)C2)ccc1Nc1cc2c(cn1)N(C)C(=O)c1occc1N2C (centres unmarked) [Compound 72]					Kinase inhibition % at indicated screening concentration: AurB or AurC (AurB or AurC; screening concentration 0.1 μM): E (E is ≦35%); inhibition at 0.1 µM (AurA; [1]): ≤ 35%; Kinase inhibition % at indicated screening concentration: AMPKa1 or AMPKa2 (AMPKa1 or AMPKa2; screening concentration 0.1 μM): E (E is ≦35%); inhibition at 0.1 µM (TAO2; [2]): ≤ 35%
CCOc1cc(C(=O)N[C@H]2CC[C@@H](O)CC2)ccc1Nc1cc2c(cn1)N(C)C(=O)c1ccccc1N2C [Compound T63]					AurB or AurC Inhibition % at indicated screening concentration (AurB or AurC; screening concentration 1 μM): E (E is ≦35%); inhibition at 1 µM (AurA; [5]): ≤ 35%; AMPKa1 or AMPKa2 Inhibition % at indicated screening concentration (AMPKa1 or AMPKa2; screening concentration 1 μM): E (E is ≦35%); inhibition at 1 µM (TAO2; [6]): ≤ 35%
